The source of these data is EP4813403A1, “USE OF GLP-1R/GIPR DOUBLE-TARGET AGONIST IN PREPARING ANIMAL DRUG” (Hangzhou Zhongmeihuadong Pharmaceutical Co., Ltd., priority 2023, dated 2025).

SMILES strings stand for the structures.

The target of assay [1] is T1, rat GIPR (Rattus norvegicus, UniProt P43219).
T1 construct: expressed in transfected cells; host or cells: CHO-K1 (transient)
T1 sequence (P43219 19-455): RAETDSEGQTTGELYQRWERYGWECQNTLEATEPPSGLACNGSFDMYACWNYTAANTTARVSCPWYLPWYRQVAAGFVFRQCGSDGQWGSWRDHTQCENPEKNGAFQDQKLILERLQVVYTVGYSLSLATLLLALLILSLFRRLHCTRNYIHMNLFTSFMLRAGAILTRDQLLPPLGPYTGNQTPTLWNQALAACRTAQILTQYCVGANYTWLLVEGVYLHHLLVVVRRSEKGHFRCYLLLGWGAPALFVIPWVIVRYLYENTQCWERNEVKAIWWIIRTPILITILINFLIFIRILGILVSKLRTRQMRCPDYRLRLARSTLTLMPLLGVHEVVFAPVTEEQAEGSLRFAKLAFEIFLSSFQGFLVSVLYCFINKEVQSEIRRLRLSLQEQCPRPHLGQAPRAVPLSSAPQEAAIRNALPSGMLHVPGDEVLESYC
The assay can be described thus: Agonistic activity on GIPR of different species (LANCE Ultra cAMP assay): rat. It is filed as cell-based. The settings on record: ratio of EC50 value of other species to human EC50 value. (In general: TR-FRET usually uses a lanthanide donor and a delayed reading to cut background.)

The target in assay [2] is T2, rabbit GIPR (Oryctolagus cuniculus, UniProt G1T265).
T2 construct: expressed in transfected cells; host or cells: CHO-K1 (transient)
T2 sequence (G1T265 23-468): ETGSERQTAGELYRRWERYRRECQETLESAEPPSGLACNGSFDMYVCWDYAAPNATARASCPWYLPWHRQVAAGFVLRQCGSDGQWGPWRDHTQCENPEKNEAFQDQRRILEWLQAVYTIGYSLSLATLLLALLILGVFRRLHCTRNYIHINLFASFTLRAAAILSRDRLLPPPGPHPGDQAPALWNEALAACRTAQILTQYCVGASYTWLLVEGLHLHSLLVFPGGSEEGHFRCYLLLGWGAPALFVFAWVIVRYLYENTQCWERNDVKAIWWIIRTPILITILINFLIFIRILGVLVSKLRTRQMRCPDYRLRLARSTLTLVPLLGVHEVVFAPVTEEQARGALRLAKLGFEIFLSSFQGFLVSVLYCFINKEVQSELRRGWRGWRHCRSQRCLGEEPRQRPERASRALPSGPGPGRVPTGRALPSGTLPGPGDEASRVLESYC
The assay can be described thus: Agonistic activity on GIPR of different species (LANCE Ultra cAMP assay): rabbit. It is filed as cell-based. The settings on record: ratio of EC50 value of other species to human EC50 value. As to the method:
CHO-K1 cells were seeded in a 6-well plate at 0.6×10^6 cells/well and incubated overnight in an incubator at a temperature of 37 °C and a carbon dioxide concentration of 5%. The next day, CHO-K1 cell media were replaced. Then two tubes A and B were prepared for each plasmid. 100 µL Opti-MEM was added to tube A, then 4 µL Lipofectamine™ 3000 was added and mixed uniformly. 100 µL Opti-MEM was firstly added to tube B, then 2 µg of one of the plasmids (human GIPR-pcDNA5 (+) plasmid, dog GIPR-pcDNA5 (+) plasmid, mouse GIPR-pcDNA5 (+) plasmid, rat GIPR-pcDNA5 (+) plasmid, rabbit GIPR-pcDNA5 (+) plasmid, monkey GIPR-pcDNA5 (+) plasmid) was added and mixed uniformly, and 4 µL P3000™ was added to tube B and mixed uniformly (the ratio of plasmid to transfection reagent was 1 µg: 2 µL). […]
18-20 hours after transfection, human GIPR-CHO, dog GIPR-CHO, mouse GIPR-CHO, rat GIPR-CHO, rabbit GIPR-CHO, and monkey GIPR-CHO cells were resuspended in 1×Casein Stimulation Buffer (HBSS, 5 mM HEPES, 0.5 mM IBMX, 0.1% casein, pH7.4), and seeded into a 384-well cell culture plate at 9 µL/well (cell numbers being 1000, 2000, 2000, 2000, 2000, 2000 cells/well, respectively). […] The readings at 665 nm and 620 nm were determined with a 330 nm excitation light on a microplate reader. The 665 nm/620 nm reading ratio was calculated. […]

In the case of `CC[C@H](C)[C@H](NC(=O)C(C)(C)NC(=O)[C@H](Cc1ccc(O)cc1)NC(=O)[C@H](CC(=O)O)NC(=O)[C@H](CO)NC(=O)[C@@H](NC(=O)C(C)(Cc1ccccc1)NC(=O)[C@@H](NC(=O)CNC(=O)[C@H](CCC(=O)O)NC(=O)C(C)(C)NC(=O)[C@@H](N)Cc1ccc(O)cc1)[C@@H](C)O)[C@@H](C)O)C(=O)NC(C)(C)C(=O)N[C@@H](CC(C)C)C(=O)N[C@@H](CC(=O)O)C(=O)N[C@@H](CCCCN)C(=O)N[C@@H](CCC(N)=O)C(=O)N[C@@H](C)C(=O)N[C@@H](CCC(N)=O)C(=O)N[C@@H](C)C(=O)N[C@@H](CCC(=O)O)C(=O)N[C@@H](Cc1ccccc1)C(=O)N[C@H](C(=O)N[C@@H](CCCCNC(=O)COCCOCCNC(=O)COCCOCCNC(=O)COCCOCCNC(=O)CC[C@H](NC(=O)CCCCCCCCCCCCCCCCCCCCC(=O)O)C(=O)O)C(=O)N[C@@H](Cc1c[nH]c2ccccc12)C(=O)N[C@@H](CC(C)C)C(=O)N[C@@H](CC(C)C)C(=O)N[C@@H](CCCCN)C(=O)NCC(=O)NCC(=O)N1CCC[C@H]1C(=O)N[C@@H](CO)C(=O)N[C@@H](CO)C(=O)NCC(=O)N[C@@H](C)C(=O)N1CCC[C@H]1C(=O)N1CCC[C@H]1C(=O)N1CCC[C@H]1C(=O)N[C@@H](CO)C(=O)N[C@@H](CCCCN)C(N)=O)C(C)C` (some centres unmarked) [Compound P016], the “GIPR EC50 ratio” value in assay [1] is 2.22; in assay [2], 5.34.
